Reference: US20250311727A1, “SUBSTITUTED 2-AMINOAZINES AND SALTS THEREOF, AND USE THEREOF AS HERBICIDAL ACTIVE SUBSTANCES” (BAYER AKTIENGESELLSCHAFT, priority 2022, published 2025)

Columns and labels:
Type in all cases: in vivo
Amaranthus retroflexus [1] = assay: Post-emergence herbicidal efficacy at 320 g/ha, AMARE; conditions: rated visually after about 3 weeks vs untreated controls, 100% = plants have died
From the text: (§1) Unwanted plants/weeds: • ABUTH: Abutilon theophrasti • ALOMY: Alopecurus myosuroides • AMARE: Amaranthus retroflexus • DIGSA: Digitaria sanguinalis • ECHCG: Echinochloa crus-galli • KCHSC: Kochia scoparia • LOLRI: Lolium rigidum • MATIN: Matricaria inodora • POAAN: Poa annua • POLCO: Polygonum convolvulus • SETVI: Setaria viridis • STEME: Stellaria media • VERPE: Veronica persica • VIOTR: Viola tricolor A. Post-Emergence Herbicidal Efficacy at 320 g/ha
(§2) Seeds of mono- and dicotyledonous weed plants were placed in plastic pots in sandy loam soil (doubly sown with in each case one species of mono- or dicotyledonous weed plants per pot), covered with soil and cultivated in a greenhouse under controlled growth conditions. 2 to 3 weeks after sowing, the test plants were treated at the one-leaf stage. The compounds of the invention, formulated in the form of wettable powders (WP) or as emulsion concentrates (EC), were applied to the green parts of the plants as aqueous suspension or emulsion with addition of 0.5% additive at a water application rate equivalent to 600 litres per hectare. After the test plants had been kept in the greenhouse under optimum growth conditions for about 3 weeks, the activity of the preparations was rated visually in comparison to untreated controls.
(§3) For example, 100% activity=the plants have died, 0% activity=like control plants.
(§4) Tables A1 to A10 below show the effects of selected compounds of the general formula (I) according to Table 1 on various harmful plants and at an application rate corresponding to 320 g/ha, which were obtained by the trial procedure specified above.

Veronica persica = assay: Post-emergence herbicidal efficacy at 320 g/ha, VERPE; conditions: rated visually after about 3 weeks vs untreated controls, 100% = plants have died
From the text: as §1, §2, §3, §4

Digitaria sanguinalis = assay: Pre-emergence herbicide efficacy at 320 g/ha, DIGSA; conditions: scored visually after about 3 weeks vs untreated controls, 100% = plants have died
From the text: as §1
(§5) Seeds of mono- and dicotyledonous weed plants were placed in plastic pots in sandy loam soil (doubly sown with one species each of mono- or dicotyledonous weed plants per pot) and covered with soil. The compounds of the invention, formulated in the form of wettable powders (WP) or as emulsion concentrates (EC), were then applied to the surface of the covering soil as aqueous suspension or emulsion with addition of 0.5% additive at a water application rate of 600 litres per hectare (converted). After the treatment, the pots were placed in a greenhouse and kept under good growth conditions for the test plants. After about 3 weeks, the efficacy of the preparations was scored visually in comparison with untreated controls as percentages.
as §3
(§6) Tables C1 to C12 below show the effects of selected compounds of the general formula (I) according to Table 1 on various harmful plants and at an application rate corresponding to 320 g/ha, which were obtained by the trial procedure specified above.

Stellaria media [2] = assay: Pre-emergence herbicide efficacy at 320 g/ha, STEME; conditions: scored visually after about 3 weeks vs untreated controls, 100% = plants have died
From the text: as §1, §5, §3, §6

Setaria viridis = assay: Pre-emergence herbicide efficacy at 320 g/ha, SETVI; conditions: scored visually after about 3 weeks vs untreated controls, 100% = plants have died
From the text: as §1, §5, §3, §6

Abutilon theophrasti = assay: Post-emergence herbicidal efficacy at 320 g/ha, ABUTH; conditions: rated visually after about 3 weeks vs untreated controls, 100% = plants have died
From the text: as §1, §2, §3, §4

Amaranthus retroflexus [3] = assay: Pre-emergence herbicide efficacy at 320 g/ha, AMARE; conditions: scored visually after about 3 weeks vs untreated controls, 100% = plants have died
From the text: as §1, §5, §3, §6

Stellaria media [4] = assay: Post-emergence herbicidal efficacy at 320 g/ha, STEME; conditions: rated visually after about 3 weeks vs untreated controls, 100% = plants have died
From the text: as §1, §2, §3, §4

Kochia scoparia = assay: Post-emergence herbicidal efficacy at 320 g/ha, KCHSC; conditions: rated visually after about 3 weeks vs untreated controls, 100% = plants have died
From the text: as §1, §2, §3, §4

## Cc1ccc(Nc2ncc(F)cn2)c(-n2cc(C(F)(F)F)cn2)c1C#N [Example 1-46]
Amaranthus retroflexus [1]
  Post-emergence efficacy at 320 g/ha against AMARE in %: 90%
Veronica persica
  Post-emergence efficacy at 320 g/ha against VERPE in %: 90%
Digitaria sanguinalis
  Pre-emergence efficacy at 320 g/ha against DIGSA in %: 90%

## N#Cc1cccc(Nc2ncc(C(F)(F)F)cn2)c1-n1cc(C(F)(F)F)cn1 [Example 1-41]
Veronica persica
  Post-emergence efficacy at 320 g/ha against VERPE in %: 90%

## O=S(=O)(CCC(F)(F)F)Oc1c(F)cccc1Nc1ncc(F)cn1 [Example 1-17]
Amaranthus retroflexus [1]
  Post-emergence efficacy at 320 g/ha against AMARE in %: 90%

## FC(F)(F)CCCSc1ccccc1Nc1ncc(Cl)cn1 [Example 1-4]
Amaranthus retroflexus [1]
  Post-emergence efficacy at 320 g/ha against AMARE in %: 90%

## Fc1cccc(Nc2ccc(Cl)cn2)c1-c1cc(C(F)F)no1 [Example 1-56]
Amaranthus retroflexus [1]
  Post-emergence efficacy at 320 g/ha against AMARE in %: 90%
Veronica persica
  Post-emergence efficacy at 320 g/ha against VERPE in %: 90%

## COCc1cnn(-c2c(C#N)cccc2Nc2ncc(F)cn2)c1 [Example 1-69]
Amaranthus retroflexus [1]
  Post-emergence efficacy at 320 g/ha against AMARE in %: 100%
Stellaria media [2]
  Pre-emergence efficacy at 320 g/ha against STEME in %: 100%
Setaria viridis
  Pre-emergence efficacy at 320 g/ha against SETVI in %: 90%
Abutilon theophrasti
  Post-emergence efficacy at 320 g/ha against ABUTH in %: 90%
Veronica persica
  Post-emergence efficacy at 320 g/ha against VERPE in %: 100%
Amaranthus retroflexus [3]
  Pre-emergence efficacy at 320 g/ha against AMARE in %: 100%
Stellaria media [4]
  Post-emergence efficacy at 320 g/ha against STEME in %: 100%

## Cc1ccc(Nc2ncc(Cl)cn2)c(-n2cc(C(F)(F)F)cn2)c1C#N [Example 1-45]
Stellaria media [2]
  Pre-emergence efficacy at 320 g/ha against STEME in %: 100%

## Fc1cnc(Nc2ccccc2SCCCC(F)(F)F)nc1 [Example 1-7]
Amaranthus retroflexus [1]
  Post-emergence efficacy at 320 g/ha against AMARE in %: 100%
Kochia scoparia
  Post-emergence efficacy at 320 g/ha against KCHSC in %: 90%
Abutilon theophrasti
  Post-emergence efficacy at 320 g/ha against ABUTH in %: 90%
Veronica persica
  Post-emergence efficacy at 320 g/ha against VERPE in %: 100%
Amaranthus retroflexus [3]
  Pre-emergence efficacy at 320 g/ha against AMARE in %: 90%
Stellaria media [4]
  Post-emergence efficacy at 320 g/ha against STEME in %: 90%

## Cc1cc(C)c(-c2cc(C(F)F)no2)c(Nc2ccc(Cl)cn2)n1 [Example 2-7]
Veronica persica
  Post-emergence efficacy at 320 g/ha against VERPE in %: 90%

## FC(F)(F)CCCc1ccccc1Nc1ccc(Cl)cn1 [Example 1-70]
Amaranthus retroflexus [1]
  Post-emergence efficacy at 320 g/ha against AMARE in %: 100%
Veronica persica
  Post-emergence efficacy at 320 g/ha against VERPE in %: 90%

## N#Cc1cccc(Nc2ncc(Cl)cc2F)c1-n1cc(C(F)(F)F)cn1 [Example 1-54]
Amaranthus retroflexus [1]
  Post-emergence efficacy at 320 g/ha against AMARE in %: 100%
Kochia scoparia
  Post-emergence efficacy at 320 g/ha against KCHSC in %: 90%
Veronica persica
  Post-emergence efficacy at 320 g/ha against VERPE in %: 100%

## N#Cc1cccc(Nc2ccc(F)cn2)c1-n1cc(C(F)(F)F)cn1 [Example 1-52]
Amaranthus retroflexus [1]
  Post-emergence efficacy at 320 g/ha against AMARE in %: 90%
Veronica persica
  Post-emergence efficacy at 320 g/ha against VERPE in %: 90%
Amaranthus retroflexus [3]
  Pre-emergence efficacy at 320 g/ha against AMARE in %: 90%

## N#Cc1ccc(Nc2cccc(C#N)c2-n2cc(C(F)(F)F)cn2)nc1 [Example 1-58]
Amaranthus retroflexus [1]
  Post-emergence efficacy at 320 g/ha against AMARE in %: 90%
Veronica persica
  Post-emergence efficacy at 320 g/ha against VERPE in %: 90%

## O=S(=O)(CCCC(F)(F)F)Oc1c(F)cccc1Nc1ncc(F)cn1 [Example 1-15]
Amaranthus retroflexus [1]
  Post-emergence efficacy at 320 g/ha against AMARE in %: 90%
Veronica persica
  Post-emergence efficacy at 320 g/ha against VERPE in %: 90%
